In one test the test system is CRY1. Kind of test: Flag-CRY1 degradation/stability in AMPK+/+ and AMPK-/- mouse embryonic fibroblasts (immunoprecipitation, immunoblot, cycloheximide time course). In kind it is cell-based. An excerpt: (§1) (A) Sequence alignments showing evolutionary conservation of the regions surrounding S71 of mCRY1 in cryptochrome circadian transcriptional repressors (species names in red font) and blue light photoreceptors (species names in blue font). The highlighted numbers above the sequences indicate amino acid preferences at those positions relative to the target serine for phosphorylation by AMP kinase: red indicates a preference for acidic residues (K/R) and green for hydrophobic residues (L/I/V/F). (B) Top: sequence alignment of the phospho-peptides against which antibodies to mCRY1-pS71 and mACC1-pS79 were raised. Bottom: Both anti-mCRY1-pS71 and anti-ACC1-pS79 antibodies recognize WT but not S71A Flag-mCRY1 immunoprecipitated from AD293 cells. (C) anti-mCRY1-p571 was used to detect phosphorylation of Ser71 in Flag-CRY1 immunoprecipitated from AD293 cells transiently expressing wild type CRY1 (WT) or CRY1S71A (S71A) in the absence or presence of activated alleles of AMPKα1 (CAα1) or AMPKα2 (CAα2). Transiently expressed myc-CAα1 and myc-CAα2 were immunostained with polyclonal rabbit antibodies raised against the myc epitope tags and anti-rabbit AF488 (green). Nuclei were counterstained with DAPI (blue). (D) HeLa cells transiently expressing Flag-CRY1 with wild type (WT) or kinase dead (KD) LKB1 were treated with vehicle (−) or 2 mM AICAR (+) for 2 hours. (E) AD293 cells transiently expressing the indicated alleles of Flag-mCRY1 were treated with media containing 25 mM or 0.5 mM glucose. (F) Paired wild type (AMPK+/+) and ampkα1^−/−;ampkα2^−/− (AMPK−/−) mouse embryonic fibroblasts stably expressing Flag-tagged wild type CRY1 (WT) or CRY1S71A/S280A (AA) were treated with vehicle (−) or 2 mM AICAR (+) for 2 hours. (G) MEFs described in (F) were treated with 100 μg/ml cycloheximide (CHX) for the indicated times. CRY1 was detected by immunoprecipitation and immunoblotting for the Flag epitope in (D-G). […]
In general terms: In western blotting, separated proteins are transferred to a membrane and probed.

A further test deals with mCRY1. The test is described as follows: Levels of exogenously expressed Flag-mCRY1 in HeLa cells expressing WT or KD LKB1 (immunoblot). Format: cell-based, mouse. The following applies: HeLa cells with wild type (WT) LKB1; 2 mM AICAR for 2 hours.
Source text: as §1, with “(D) HeLa cells transiently expressing Flag-CRY1 with wild type (WT) or kinase dead (KD) LKB1 were treated with vehicle (−) or 2 mM AICAR (+) for 2 hours. (E) AD293 cells transiently expressing the indicated alleles of Flag-mCRY1 were treated with media containing 25 mM or 0.5 mM glucose. (F) Paired wild type (AMPK+/+) and ampkα1^−/−;ampkα2^−/− (AMPK−/−) mouse embryonic fibroblasts stably expressing Flag-tagged wild type CRY1 (WT) or CRY1S71A/S280A (AA) were treated with vehicle (−) or 2 mM AICAR (+) for 2 hours. (G) MEFs described in (F) were treated with 100 μg/ml cycloheximide (CHX) for the indicated times.” left out

Test [1] concerns Fas and Por expression in liver. The test is described as follows: Liver gene expression (quantitative PCR) in wildtype and Cry1-/-;Cry2-/- mice injected with AICAR. In kind it is in vivo, mouse. The procedure: Wildtype (WT) or Cry1^−/−;Cry2^−/− (CRY^−/−) mice were injected with either saline (black bars) or 500 mg AICAR per kg of bodyweight (red bars) at 6:00 pm. cDNA was prepared from livers collected four hours later at 10:00 pm and gene expression was analyzed by quantitative PCR using Sybr GreenER chemistry. […] Data represent the mean±s.e.m. for 3-5 mice per condition.
Gene Expression—RNA was extracted from livers or cultured fibroblasts with Trizol or using the Qiagen RNeasy purification system. cDNA was prepared using the SuperscriptII reverse transcriptase (Invitrogen) and analyzed for gene expression using quantitative real-time PCR with either SYBR green (Invitrogen) or TaqMan (Applied Biosystems) chemistry. Primer sequences are available upon request.
Mice—LKB1^fl/fl mice were a gift from Dr. Ronald De Pinho, Cry1^−/−;Cry2^−/− mice were a gift from Dr. Aziz Sancar. Adenovirus expressing Cre recombinase was from the University of Iowa Transgenic Core facility. All animal care and treatments were in accordance with the Salk Institute guidelines for the care and use of animals.
Furthermore, the effect on metabolic physiology of genetic disruption of both Cry1 and Cry2 in mice is examined.

Test [2] has as its system reverba and dbp expression. Kind of test: Quantitative PCR of circadian transcripts in serum-stimulated mouse embryonic fibroblasts. Format: cell-based. The note with it: 25 mM glucose supplemented with 1 mM AICAR. The procedure:
(A) Unsynchronized paired wild type (AMPK^+/+) or ampkα1^−/−; ampkα2^−/− (AMPK−/−) mouse embryonic fibroblasts were stimulated by 2 hour exposure to 50% horse serum followed by transfer to media containing 25 mM glucose, 0.5 mM glucose or 25 mM glucose supplemented with 1 mM AICAR. Quantitative PCR analysis was performed using cDNA samples collected at the indicated times following stimulation. Data represent the mean of two independent experiments, each analyzed in triplicate. (B) Fibroblasts stably expressing Bmall-luciferase were cultured in media containing the indicated amounts of glucose with or without 2 mM AICAR. Typical results of continuous monitoring of luciferase activity are shown. (C and D) Quantitation of the circadian period (C) and amplitude (D) of Bmall-driven luciferase activity from experiments performed as described in (B). Data in (C) and (D) represent the mean±standard deviation for four samples per condition. […]
FIG. 10A-D show disruption of AMPK alters circadian rhythms in MEFs. […] Quantitative PCR analysis was performed using cDNA samples prepared from lysates collected at the indicated times following stimulation. Data represent the mean±standard deviation of two or three independent experiments each analyzed in triplicate. […]

A further test has as its system Bmall-luciferase. The test is described as follows: Real time bioluminescence monitoring of Bmall-luciferase circadian rhythms. Format: cell-based, human. The note with it: high glucose medium supplemented with 2 mM AICAR. How it is done: (A) Unsynchronized paired wild type (AMPK^+/+) or ampkα1^−/−; ampkα2^−/− (AMPK−/−) mouse embryonic fibroblasts were stimulated by 2 hour exposure to 50% horse serum followed by transfer to media containing 25 mM glucose, 0.5 mM glucose or 25 mM glucose supplemented with 1 mM AICAR. Quantitative PCR analysis was performed using cDNA samples collected at the indicated times following stimulation. Data represent the mean of two independent experiments, each analyzed in triplicate. (B) Fibroblasts stably expressing Bmall-luciferase were cultured in media containing the indicated amounts of glucose with or without 2 mM AICAR. Typical results of continuous monitoring of luciferase activity are shown. (C and D) Quantitation of the circadian period (C) and amplitude (D) of Bmall-driven luciferase activity from experiments performed as described in (B). Data in (C) and (D) represent the mean±standard deviation for four samples per condition. ANOVA analysis indicated a significant difference between categories. ** P<0.01 vs. samples cultured in 25 mM glucose in Scheffe's post-hoc analysis.
The Bmall promoter is repressed by REVERBa. […]
Real Time Bioluminescence Monitoring—The human osteosarcoma U2OS reporter cell line stably expressing a Bmall promoter driven luciferase has been described. […] Bioluminescence was continuously recorded by a LumiCycle apparatus from Actimetrics, Inc.

The test system of test [3] is AMPK. The test is described as follows: In vitro phosphorylation assay of purified Flag-mCRY1 by purified AMPK. Format: biochemical. The note with it: 300 μM AMP; 30 minutes; 32P-ATP. The procedure: Flag-tagged mCRY1 purified from AD293 cells was incubated for 30 minutes with #^32P-ATP in the absence or presence of AMP kinase and 300 μM AMP as indicated. Phosphorylation of mCRY1 was detected by autoradiography; total mCRY1 levels were determined by immunoblot for the Flag epitope.
In vitro Phosphorylation Assay—Flag-mCRY1 was purified from transfected AD293 cells and combined with ^32P-ATP and purified AMPK (from Upstate Biotechnology) in the presence or absence of 300 uM AMP for 30 minutes at room temperature. The reaction mixture was separated by SDS-PAGE and transferred to nitrocellulose. Following radioactive visualization by phosphoimager, the nitrocellulose was immunoblotted for the Flag tag.

For test [4], the system named is AMPK. The note with it: cited from earlier work.
[5] abbreviates: WT or Cry1-/-;Cry2-/- mice, 500 mg AICAR per kg of bodyweight, livers collected four hours later.

Molecules are shown by their SMILES.

For the compound `NC(=O)c1ncn([C@@H]2O[C@H](CO)[C@@H](O)[C@H]2O)c1N` [AICAR, 5-amino-4-imidazolecarboxamide riboside], the “stability of wild type CRY1” value in the test with CRY1 (4-hour time course of cycloheximide treatment in the presence of AICAR) was “reduced stability”. Besides, the “effect on WT or AA CRY1” value in the test on CRY1 (AMPK-/- MEFs (absence of functional AMPK), 2 mM AICAR for 2 hours) is given as “no effect”. Besides, the “degradation of wild type (WT) Flag-CRY1” value with CRY1 (wild type (AMPK+/+) MEFs, 2 mM AICAR for 2 hours) was “acutely degraded”. The “levels of exogenously expressed mCRY1” value in the test with mCRY1 is given as “reduction was enhanced”. Besides, in test [1] (setting [5]), the “Fas (fatty acid synthase) expression in liver” value is “activated by AICAR regardless of Cry1 and Cry2 genotype”; the “Por (p450 oxidoreductase) expression in liver” value is “AICAR-induced activation requires cryptochromes”. In addition, the “gene expression in the livers” value in test [1] (wildtype and cryptochrome-deficient mice injected with AICAR) is “cryptochromes are required for AICAR-induced activation of a subset of the genes”. Further, the “expression of reverba and dbp” value in test [2] (MEFs lacking AMPK (AMPK-/-)) is reported as “neither glucose deprivation nor AICAR treatment affected”. Further, the “amplitude of circadian reverba and dbp expression” value in test [2] (wild type fibroblasts) was “mimicked the effects of glucose deprivation”. Moreover, the “amplitude of Bmall-luciferase expression” value in the test with Bmall-luciferase is recorded as “decreased the amplitude”.

With `Nc1ncnc2c1ncn2[C@@H]1O[C@H](COP(=O)(O)O)[C@@H](O)[C@H]1O` [AMP], in the test on AMPK [3], the “phosphorylation of mCRY1 by purified AMPK” value is “strongly activated”.

`NC(=O)c1ncn([C@@H]2O[C@H](COP(=O)(O)O)[C@@H](O)[C@H]2O)c1N` [ZMP, 5-amino-4-imidazolecarboxamide ribotide]: the AMPK activation entry in the test with AMPK [4] (AMP analog formed in the cell from AICAR) is recorded as “has been shown to activate AMPK”. Further, the “specificity as AMPK activator” value in the test with AMPK [4] (also acts as an AMP mimic in the regulation of other enzymes) was “not a specific AMPK activator”.
